According to patent publication EP0004516A2, “Pharmaceutical compositions active on the gastro-intestinal motricity” (SCIENCE UNION ET Cie SOCIETE FRANCAISE DE RECHERCHE MEDICALE, priority 1978, dated 1979):

Assays:
[1] = test system: ulcère produit par la contrainte; assay: Restraint ulcer protection; format: in vivo, animal
[2] = test system: musculature lisse tube digestif; assay: Pharmacological studies: antispasmodic action and restoration of digestive smooth muscle motility
fibre lisse = assay: Anti-serotonin action shown directly on smooth fibre
[3] = test system: troubles moteurs gastro-duodénaux (dyspepsie hyposthénique en rapport avec un état dépressif psychasthénique); assay: Double-blind cross-over clinical and external digestive electromyographic study versus placebo (Exemple IV); format: in vivo, humaine
Experimental: Effet normalisateur des compositions à base d'acide 7-[(3-chloro 6-methyl 5,5-dioxo 6,11-dihydrodibenzo (c,f) thiazepin 1,2-11-yl) amino] heptanoique sur les troubles moteurs gastro-duodénaux en clinique humaine.
Evaluer l'efficacité du principe actif dans trois posologies différentes : • .
Les malades ont été divisés en deux groupes de 12 sujets • . Un 1er groupe de 12 cas a reçu successivement et en cross- over 1 comprimé par jour de 12,5mg et de 25mg de PA. (Un malade de ce groupe a abandonné le traitement) • . Un 2ème groupe de 12 cas a reçu successivement et en cross- over 2 comprimés par jour, soit 2 x 12.
Chaque sujet avait au minimum : • 1. Un syndrome dyspeptique hyposténique, avec • - ballonnements • - pesanteur • - somnolence post-prandiale • - brûlures et / ou douleurs épigastriques • - états nauséeux • 2. Ln état dépressif psycnasténique, avec • - dépression • - inhibition psycho-motrice • - asthénie • - anxiété psychique et / ou somatisée • - troubles du sommeil (difficulté à l'endormissement ou réveil précoce) • 3. Un électromyogramme digestif externe pathologique, avec un retard d'apparition des ondes gastriques après le repas (d'au moins 2 heures).
• . Selon la gravité clinique, de 0 à 3 • . Pour l'électromyogramme digestif, chez un sujet normal, les ondes gastriques apparaissent dès l'ingestion d'un repas équilibré et persistent pendant 5 heures en moyenne. Cette situation était côtée 0.
Chez le dyspeptique hyposténique, il existe une absence d'ondes gastriques dans la phase post-prandiale, qui peut durer plus de 3 heures. Cette situation était côtée 2.
Si, après le traitement, la sidération diminuait, elle était côtée 1.
L'examen clinique était répété après chaque passage du produit actif, ou de placebc, soit 5 fois par milade.
En ce qui concerne les tracés EMG, nous avions prévu quatre enregistrements par sujet : avant traitement, après chaque passage de Principe Actif, et après le dernier passage Placebo.

[4] = 1 x 25 mg/jour, 15 jours, Groupe I, 11 cas
[5] = 1 x 12,5 mg/jour, 15 jours, Groupe I, 11 cas
[6] = 2 x 25mg/jour, 15 jours, Groupe II, 12 cas
[7] = 2 x 12,5mg/jour, 15 jours, Groupe II, 12 cas

In the case of CN1c2ccccc2C(NCCCCCCC(=O)O)c2ccc(Cl)cc2S1(=O)=O (racemic) [principe actif, acide 7-[(3-chloro 6-méthyl 5,5-dioxo 6,11-dihydrodibenzo (c,f)thiazepin 1,2-11-yl)amino] heptanoique], the “effet anti-secrétoire” value ([1]; accompanying the protective effect) is reported as “ne s'accompagne pas d'effet anti-secrétoire”, the “protection contre l'ulcère produit par la contrainte” value ([1]; in vivo) is reported as “protégeait l'animal contre l'ulcère produit par la contrainte” and the action antispasmodique [2] is reported as “importante”. For the same compound, the “restauration de la motricité (atonie de la musculature lisse)” value [2] was “capables de restaurer une motricité constante et bien coordonnée”, the “action anti sérotonine” value (fibre lisse) was “très importante” and the “absence d'effet” value [3, 4] was 18,2%. The “très bon effet thérapeutique global” value [3, 4] was 81,8%, the activité moyenne [3, 5] was 54,6% and the “bonne activité (très nette amélioration de l'ensemble des symptômes digestifs, psychiques, ainsi que des tracés EMG externes)” value [3, 5] was 45,4%. The activité bonne [3, 6] was 83,3%, the activité moyenne [3, 6] was 16,6% and the “Bon effet thérapeutique global” value [3, 7] was 66,6%. The effet moyen [3, 7] was 33,3% and the “activité globale par rapport au placebo” value ([3]; 12,5mg, 25mg et 50mg, both groups) was “toujours été nettement supérieur au placebo”.
